Results reported in US9161986B2, “Nanoparticle containing prostaglandin I2 derivative” (LTT BIO-PHARMA CO., LTD., priority 2011, dated 2015).

Legend:
[1] = Formation of insoluble complex in presence or absence of ferric chloride; format: physicochemical; details: various amounts of diethanolamine
Procedure: To confirm this, the pH change of the solution and the percentage of beraprost sodium remaining in its supernatant when various amounts of diethanolamine (DEA) was added to the solution in the presence or absence of ferric chloride were examined.
Specifically, the pH of the solution was adjusted by adding diethanolamine to the aqueous solution of an iron ion of a specific concentration (455 mM) and beraprost sodium (32.5 mM) so that various pHs of the solution were obtained. The solution (suspension) was centrifuged at 16,500 g for 10 minutes, and the amount of beraprost sodium dissolved in the supernatant was determined by HPLC. The pH of the solution was also measured.
On the other hand, the pH of the solution was adjusted by adding diethanolamine to the aqueous solution of beraprost sodium (32.5 mM) in which hydrochloric acid was used instead of an iron ion of a specific concentration so that various pHs of the solution were obtained. The solution (suspension) was centrifuged at 16,500 g for 10 minutes, and the amount of beraprost sodium dissolved in the supernatant was determined by HPLC. The pH of the solution was also measured.

[2] = Evaluation of drug retention in blood after intravenous administration; format: in vivo, male Wister rats; details: intravenous via tail vein, rats, n=3; FIG. 5
Procedure: Either beraprost sodium nanoparticles or beraprost sodium (comparative example) was administered to male Wister rats (5 week old, n=3) intravenously via a tail vein. After administration, a tail vein different from the administration site was cut with a scalpel at specified times, and blood samples were collected by using blood collection tubes (heparin-treated). A sample solution was prepared by adding 50 μL, of the blood to a microfuge tube containing 1,4-dioxane (150 μL). The sample solution was centrifuged (13,200 rpm, 4° C., and 10 minutes), and then, beraprost sodium contained in the supernatant was determined by HPLC.

cAMP = assay: Continuous increase of plasma cAMP after intravenous administration (cAMP ELISA); format: in vivo, male Wister rats; details: intravenous via tail vein, rats, n=2; FIG. 6
Procedure: Prostacyclin leads to relaxation of vascular smooth muscle and exerts a dilation effect on a pulmonary vessel by activating adenyl cyclase via a prostacyclin receptor on the vascular smooth muscle and increasing the concentration of cAMP. Therefore, the present inventors investigated whether cAMP increased continuously when the beraprost sodium-containing nanoparticle of the present invention was administered. Either beraprost sodium-containing nanoparticles or beraprost sodium (comparative example) was administered to male Wister rats (5 week old, n=2) intravenously via a tail vein. After administration, a tail vein different from the administration site was cut with a scalpel at specified times, and blood samples were collected by using blood collection tubes. […] This blood plasma sample was diluted as appropriate and cAMP contained in the […] was determined by using a cAMP ELISA kit. The method of measurement followed the protocol made by Assay Designs Inc.

[3] = test system: pulmonary vascular resistance; details: treatment for three months, clinical trials; cited from earlier work
[4] = in vivo; cited from earlier work
[5] = oral; cited from earlier work
[6] = test system: primary pulmonary hypertension; details: primary pulmonary hypertension group treated with epoprostenol; previous studies; cited from earlier work
[7] = measure of chemical stability; cited from earlier work

Compound	formation of insoluble complex ([1]; in the absence of ferric chloride (hydrochloric acid instead), FIG. 3)	formation of insoluble complex ([1]; in the presence of ferric chloride, FIG. 2)	drug retention in the blood [2]	continuous increase of cAMP in the plasma (cAMP)	pulmonary vascular resistance [3]	biological half-life [4]	half-life of the blood concentration [5]	three-year survival rate [6]	chemical half-life [7]
CC#CCC(C)[C@H](O)/C=C/[C@@H]1[C@H]2c3cccc(CCCC(=O)[O-])c3O[C@H]2C[C@H]1O.[Na+] (stereo partly drawn) [beraprost sodium]	no insoluble complex was formed	formation of an insoluble complex	little beraprost sodium existed in the blood as early as 3 hours after its administration	no continuous increase of cAMP was observed	significantly decreased the pulmonary vascular resistance	about 1.1 hours	1.1 h	–	–
CCCCC[C@H](O)/C=C/[C@@H]1[C@H]2C/C(=C/CCCC(=O)O)O[C@H]2C[C@H]1O [epoprostenol]	–	–	–	–	–	–	–	about 70%	about 10 minutes
